Laboratory results taken from the supplement of paper PMC11208160.

Assay: recombinant UMI read abundance after kanamycin selection (control-corrected) (log10(CPM+1)); higher = more efficient recombination; extreme values may be limits of the assay; sequences stand for … in AGTGCAGAGAAAATCGGCCAGTTTTCTCTGCCTGCAGTCCGCATGCCGTGGGACCCCTTGGGTTCTAACCTGTTGCCTAGATTTATGCAGCGGACTGCCTTTCTCCCAAAGTGATAAACCGG…AGGTTGGTTTCACT; site = the 11-nt donor
In short: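 Under IPTG (0.07 mM) plus kanamycin, or without selection, Escherichia coli carrying a UMI-tagged donor and donor-binding-loop pair library and a target plasmid for the IS621 bridge recombinase were plated in two replicates. Recombinant UMIs were PCR-amplified across the donor–target junction and sequenced. Counts were converted to CPM, averaged over replicates, scaled by control-derived factors and reported as log10(CPM+1).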
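Also: IS621 bridge recombinase in Escherichia coli cells against a fixed T5 target plasmid.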

Sequence	recombinant UMI read abundance (log10)
CTGCTTCCATGGACCGGTTTTCCCGGTAATCCGTATTTGCT (site CTGCTCCCTAG)	0.807
CTGCTTCCATGGACCGGTTTTCCCGGTAATCCGTATTTGCT (site CTGCTGCCTAG)	0.00367
CTGCTTCCATGGACCGGTTTTCCCGGTAATCCGTATTTGCT (site CTGCTTCCTAG)	1.73
CTGGAACCATGGACCGGTTTTCCCGGTAATCCGTATTTGAT (site CAGGAACCTAT)	0
CTGGAACCATGGACCGGTTTTCCCGGTAATCCGTATTTGAT (site CCGGAACCTAT)	0
CTGGAACCATGGACCGGTTTTCCCGGTAATCCGTATTTGAT (site CGGGAACCTAT)	0
CTGGAACCATGGACCGGTTTTCCCGGTAATCCGTATTTGAT (site CTGGAACCTAT)	0
CTGGAACCATGGACCGGTTTTCCCGGTAATCCGTATTTGCA (site CTGGAAACTTG)	0
CTGGAACCATGGACCGGTTTTCCCGGTAATCCGTATTTGCA (site CTGGAACCTTG)	0
CTGGAACCATGGACCGGTTTTCCCGGTAATCCGTATTTGCA (site CTGGAAGCTTG)	0.00806
CTGGAACCATGGACCGGTTTTCCCGGTAATCCGTATTTGCA (site CTGGAATCTTG)	2.36
CTGGACACATGGACCGGTTTTCCCGGTAATCCGTATTTGCA (site CTGGAAACTTG)	0.462
CTGGACACATGGACCGGTTTTCCCGGTAATCCGTATTTGCA (site CTGGACACTTG)	2.59
CTGGACACATGGACCGGTTTTCCCGGTAATCCGTATTTGCA (site CTGGAGACTTG)	0.00455
CTGGACACATGGACCGGTTTTCCCGGTAATCCGTATTTGCA (site CTGGATACTTG)	1.66
CTGGGCCCATGGACCGGTTTTCCCGGTAATCCGTATTTGCC (site CTGGGCCCTGG)	0
CTGGTAACATGGACCGGTTTTCCCGGTAATCCGTATTTGCA (site CTGGAAACTTG)	1.03
CTGGTAACATGGACCGGTTTTCCCGGTAATCCGTATTTGCA (site CTGGCAACTTG)	0.197
CTGGTAACATGGACCGGTTTTCCCGGTAATCCGTATTTGCA (site CTGGGAACTTG)	0
CTGGTAACATGGACCGGTTTTCCCGGTAATCCGTATTTGCA (site CTGGTAACTTG)	2.06
CTGGTATCATGGACCGGTTTTCCCGGTAATCCGTATTTGAC (site CTAGTATCTGT)	3.16
CTGGTATCATGGACCGGTTTTCCCGGTAATCCGTATTTGAC (site CTCGTATCTGT)	0
CTGGTATCATGGACCGGTTTTCCCGGTAATCCGTATTTGAC (site CTGGTATCTGT)	3.22
CTGGTATCATGGACCGGTTTTCCCGGTAATCCGTATTTGAC (site CTTGTATCTGT)	0.816
CTGGTCGCATGGACCGGTTTTCCCGGTAATCCGTATTTGCA (site CTGGTCGCTTG)	2.01

Sequence	recombinant UMI read abundance (log10)
CTGTACCCATGGACCGGTTTTCCCGGTAATCCGTATTTGAG (site CTGTACCCTCT)	0.00463
CTGTCAGCATGGACCGGTTTTCCCGGTAATCCGTATTTGGT (site CTGTCAGCTAC)	0.563
CTGTCCTCATGGACCGGTTTTCCCGGTAATCCGTATTTGTT (site CTGTCCTCTAA)	1.92
CTGTCGACATGGACCGGTTTTCCCGGTAATCCGTATTTGGT (site CTGTCGACTAC)	0.884
CTGTCGGCATGGACCGGTTTTCCCGGTAATCCGTATTTGCC (site CTGTCGGCTGG)	0
CTGTCTCCATGGACCGGTTTTCCCGGTAATCCGTATTTGAG (site CTGTCTCCTCT)	0.0686
CTGTCTTCATGGACCGGTTTTCCCGGTAATCCGTATTTGGG (site CTGTCTTCTCC)	0.0096
CTGTGAACATGGACCGGTTTTCCCGGTAATCCGTATTTGTT (site CTGTGAACTAA)	1.15
CTTACTACATGGACCGGTTTTCCCGGTAATCCGTATTTGGA (site CTTACTACTTC)	0.205
CTTAGGCCATGGACCGGTTTTCCCGGTAATCCGTATTTGAA (site CTTAGGCCTTT)	0.104
CTTATCTCATGGACCGGTTTTCCCGGTAATCCGTATTTGTA (site CTTATCTCTTA)	2.27
CTTATCTCATGGACCGGTTTTCCCGGTAATCCGTATTTGTA (site CTTCTCTCTTA)	0.475
CTTATCTCATGGACCGGTTTTCCCGGTAATCCGTATTTGTA (site CTTGTCTCTTA)	0.606
CTTATCTCATGGACCGGTTTTCCCGGTAATCCGTATTTGTA (site CTTTTCTCTTA)	0.00641
CTTCACACATGGACCGGTTTTCCCGGTAATCCGTATTTGTA (site CTTCACACTTA)	0.61
CTTCCGCCATGGACCGGTTTTCCCGGTAATCCGTATTTGAG (site CTTCCGCCTCT)	0.0295
CTTCGACCATGGACCGGTTTTCCCGGTAATCCGTATTTGCA (site CTTCGACCTTG)	0
CTTCGAGCATGGACCGGTTTTCCCGGTAATCCGTATTTGTT (site CTTCGAGCTAA)	1.59
CTTCGTCCATGGACCGGTTTTCCCGGTAATCCGTATTTGTT (site CTTCGTCCTAA)	0.0114
CTTCTATCATGGACCGGTTTTCCCGGTAATCCGTATTTGTA (site CTTCTATCTTA)	1.62
CTTCTATCATGGACCGGTTTTCCCGGTAATCCGTATTTGTA (site CTTCTCTCTTA)	0.0109
CTTCTATCATGGACCGGTTTTCCCGGTAATCCGTATTTGTA (site CTTCTGTCTTA)	0
CTTCTATCATGGACCGGTTTTCCCGGTAATCCGTATTTGTA (site CTTCTTTCTTA)	0
CTTCTCACATGGACCGGTTTTCCCGGTAATCCGTATTTGTA (site CTTCTCACTTA)	0.336
CTTCTCACATGGACCGGTTTTCCCGGTAATCCGTATTTGTA (site CTTCTCCCTTA)	0.00809

Sequence	recombinant UMI read abundance (log10)
CTTCTCACATGGACCGGTTTTCCCGGTAATCCGTATTTGTA (site CTTCTCGCTTA)	0.0103
CTTCTCACATGGACCGGTTTTCCCGGTAATCCGTATTTGTA (site CTTCTCTCTTA)	0
CTTCTCTCATGGACCGGTTTTCCCGGTAATCCGTATTTGCA (site CTTCTCTCTTA)	0.866
CTTCTCTCATGGACCGGTTTTCCCGGTAATCCGTATTTGCA (site CTTCTCTCTTC)	0
CTTCTCTCATGGACCGGTTTTCCCGGTAATCCGTATTTGCA (site CTTCTCTCTTG)	2.46
CTTCTCTCATGGACCGGTTTTCCCGGTAATCCGTATTTGCA (site CTTCTCTCTTT)	0.83
CTTCTCTCATGGACCGGTTTTCCCGGTAATCCGTATTTGCT (site CTTCTCTCTAG)	2.48
CTTCTGCCATGGACCGGTTTTCCCGGTAATCCGTATTTGGG (site CTTCTGCCTCC)	0.0114
CTTGACTCATGGACCGGTTTTCCCGGTAATCCGTATTTGTA (site CTTGACTCTTA)	2.26
CTTGAGACATGGACCGGTTTTCCCGGTAATCCGTATTTGGT (site ATTGAGACTAC)	0.141
CTTGAGACATGGACCGGTTTTCCCGGTAATCCGTATTTGGT (site CTTGAGACTAC)	1.03
CTTGAGACATGGACCGGTTTTCCCGGTAATCCGTATTTGGT (site GTTGAGACTAC)	0.00699
CTTGAGACATGGACCGGTTTTCCCGGTAATCCGTATTTGGT (site TTTGAGACTAC)	0.00972
CTTGCATCATGGACCGGTTTTCCCGGTAATCCGTATTTGAT (site CTTGCATCTAT)	0.497
CTTGCGGCATGGACCGGTTTTCCCGGTAATCCGTATTTGCT (site ATTGCGGCTAG)	0.00273
CTTGCGGCATGGACCGGTTTTCCCGGTAATCCGTATTTGCT (site CTTGCGGCTAG)	0.82
CTTGCGGCATGGACCGGTTTTCCCGGTAATCCGTATTTGCT (site GTTGCGGCTAG)	0.00591
CTTGCGGCATGGACCGGTTTTCCCGGTAATCCGTATTTGCT (site TTTGCGGCTAG)	0
CTTGCGGCATGGACCGGTTTTCCCGGTAATCCGTATTTGGG (site CTTGCGGCTCC)	0.0147
CTTGGTCCATGGACCGGTTTTCCCGGTAATCCGTATTTGCG (site CTTGGTCCTCG)	0.00731
CTTGTGTCATGGACCGGTTTTCCCGGTAATCCGTATTTGGG (site CTTGTGTCTCC)	0.208
GAAAACCCATGGACCGGTTTTCCCGGTAATCCGTATTTGAT (site GAAAACCCTAT)	0
GAAAAGGCATGGACCGGTTTTCCCGGTAATCCGTATTTGTT (site GAAAAGGCTAA)	2.58
GAAAATGCATGGACCGGTTTTCCCGGTAATCCGTATTTGAG (site GAAAATGCTCT)	2.25
GAAACCACATGGACCGGTTTTCCCGGTAATCCGTATTTGGT (site GAAACCACTAC)	0.48
